Measured values taken from PMC5423977, “Safety, pharmacokinetics, and pharmacodynamics of BMS-986142, a novel reversible BTK inhibitor, in healthy participants” (European Journal of Clinical Pharmacology, 2017).
Like-named read-outs stand apart in the source and are kept apart here. Blank lines part the entries; values can stand above or below the compound they belong to.

How the values were obtained:
[1] = Stability of methotrexate and 7-hydroxymethotrexate in human sodium heparin plasma and processed samples (bioanalytical validation); type: physicochemical
Description: Method validation was carried out according to the Bristol-Myers Squibb Standard Operating Procedures (SOPs) for chromatographic method validation which conforms to the U.S. FDA’s Good Laboratory Practice (GLP) regulations (21 CFR part 58). The validation experiments included but were not limited to the determination of the lower limit of quantification (LLOQ), specificity, accuracy and precision, recovery, and analyte stability under the expected conditions of sample transfer, sample storage, and sample preparation. The LLOQ of the assay was determined to be 1 ng/mL using six different lots of plasma. No interference from the endogenous components and the internal standard was observed.
The accuracy and precision data for BMS-986142, based on the maximum value from all six QC levels, obtained using one-way ANOVA in Watson are listed in Table 1. The recovery of the analyte from human plasma during extraction was determined at 3 ng/mL and 800 ng/mL for BMS-986142, at 3 ng/mL, 30 ng/mL and 750 ng/mL for methotrexate and 7-hydroxymethotrexate, by comparing the response ratios in human plasma samples spiked with the analyte prior to extraction with those spiked post-extraction. The recovery for BMS-986142 is 89-90%. The recoveries for methotrexate and 7-hydroxymethotrexate are 88-94% and 83-88%, respectively. The room temperature, freeze-thaw, and frozen storage stability of BMS-986142 were evaluated in triplicate or quadruplicate using Low QC, High QC, and Dilution QC. The reinjection integrity was assessed by re-injecting an entire run. The deviations of the mean predicted concentrations of the test samples from the nominal concentrations were used as an indicator of the stability of the analyte.

[2] = test system: animal models of arthritis; parameters: method as in PMID 21752263, PMID 21521773; conditions: cited from earlier work
[3] = test system: rat adjuvant-induced arthritis model; parameters: method as in PMID 22228807; conditions: alone or in combination with MTX; cited from earlier work
[4] = Effect of BMS-986142 on single-dose plasma PK of MTX (DDI); type: in vivo, human; conditions: for AUC(0-inf): read-out: AUC(inf), geometric mean (adjusted); for Cmax: read-out: Cmax, geometric mean (adjusted)
Description: Blood samples for the measurement of BMS-986142 were collected up to 168 h after dosing of BMS-986142 on day 1 for participants in SAD. In MAD, blood samples were collected up to 24 h on day 1 and up to 120 h on day 14 (the last day of treatment). Blood samples for the measurement of MTX were collected up to 48 h after dosing of MTX on days 1 and 8.
Plasma samples were analyzed for BMS-986142 levels with a validated method using liquid chromatography tandem mass spectrometry (LC-MS/MS) detection. The analyte was extracted from 50 μL of plasma using a liquid–liquid extraction method. Methyl tert-butyl ether was used as the extraction solvent. The lower limit of quantification (LLOQ) was 1.00 ng/mL in plasma. Plasma samples were analyzed for methotrexate levels using LC-MS/MS detection. Analytes were isolated from 50 μL plasma through solid phase extraction using Waters Oasis MAX, 10-mg, 96-well SPE plates. The final extract was analyzed using LC-MS/MS detection. LLOQ was 1.00 ng/mL in plasma. Detailed methodology quantitating the concentration level of BMS-986142 and MTX is provided in Online Resource 10.
Individual subject pharmacokinetic parameters for BMS-986142 and MTX were derived by a non-compartmental method using validated PK software (WinNonLin version 6.3; Pharsight Corporation, Mountain View, CA, USA). The following PK parameters for BMS-986142 and MTX were derived from plasma concentration versus time data: maximum observed plasma concentration (Cmax); minimum observed plasma concentration (Cmin); time to maximum observed plasma concentration (Tmax); area under the plasma concentration-time curve from time zero to the time of the last quantifiable concentration (AUC(0-T)), from time zero extrapolated to infinite time (AUC(inf)), and in one dosing interval (AUC(TAU)); terminal plasma half-life (T1/2); and AUC accumulation index (AI_AUC). AI_AUC was calculated to divide AUC(TAU) on day 14 by AUC(TAU) on day 1.
Statistical analyses were conducted to assess the effect of coadministration of BMS-986142 on the PK of MTX. For all treatment comparisons, a linear mixed-effect model was fitted to the log-transformed PK parameters Cmax, AUC(0-T), and AUC(inf). Point estimates and 90% CIs for differences on the log-scale were exponentiated to obtain estimates for geometric mean ratios (GMRs) and respective 90% CIs on the original scale. Sample size determination is based on consideration of the precision of the estimate of the GMRs of AUCs of MTX with and without BMS-986142. With 9 evaluable subjects, there will be an 80% probability that the 90% CI of AUC(INF) GMR will be within 89.9 to 111.2% of the point estimate. These precision estimates are based on an assumption that Cmax and AUC(INF) of MTX are log-normally distributed with intrasubject CV of 14.67 and 10.38%, respectively, as calculated from Namour et al..

[5] = Safety (adverse events), Study 2 MTX-DDI in healthy male participants
Description: This portion of the study was designed to assess the effect of BMS-986142 on the PK of MTX since MTX is used as a background therapy in RA patients and all patients will receive MTX when the phase 2 study of BMS-986142 is conducted. Eligible participants were confined to the clinical facility for the duration of treatment (15 days). Healthy participants were administered a single oral dose of 7.5 mg MTX on day 1. On day 2, participants received leucovorin (a single oral dose of 15 mg) as a preventive measure for MTX toxicity. After a washout period (days 2–5), BMS-986142 was administered on days 6–10 in 350-mg QD doses. A concomitant dose of MTX (7.5 mg) was administered on day 8, followed by leucovorin (15 mg) on day 9 (Online Resource 2). BMS-986142 was administered with 240 mL of water, and a minimum amount of additional water was permitted to allow dosing of all medications. Only healthy male participants (ages ≥18 to ≤50 years) were eligible for the MTX-DDI assessment in study 2. Other key inclusion and exclusion criteria were identical to those in study 1.
Participants were monitored for adverse events (AEs) throughout the study. Clinical laboratory tests, vital sign measurements, 12-lead ECGs, and physical examinations were performed at selected times throughout the dosing interval. Safety data was recorded in the participants’ medical records, and assessments were performed for emergent AEs or serious AEs (SAEs). For all AEs, causal relationship to the study drug was determined by an investigator.

[6] = 7-hydroxymethotrexate, 24 hours at RT in Plasma, High QC 750
[7] = 7-hydroxymethotrexate, 24 hours at RT in Plasma, Low QC 3.00
[8] = 7-hydroxymethotrexate, 142 h Processed sample stability, High QC 750
[9] = 7-hydroxymethotrexate, 142 h Processed sample stability, Low QC 3.00
[10] = 7-hydroxymethotrexate, 6 days at 5 °C Re-injection integrity, High QC 750
[11] = 7-hydroxymethotrexate, 6 days at 5 °C Re-injection integrity, Low QC 3.00
[12] = 7-hydroxymethotrexate, 449 day at -20 °C in Plasma, High QC 750
[13] = 7-hydroxymethotrexate, 449 day at -20 °C in Plasma, Low QC 3.00
[14] = 7-hydroxymethotrexate, After 4 Freeze-Thaw Cycle in Plasma, High QC 750
[15] = 7-hydroxymethotrexate, After 4 Freeze-Thaw Cycle in Plasma, Low QC 3.00
[16] = methotrexate, 24 hours at RT in Plasma, High QC 750
[17] = methotrexate, 24 hours at RT in Plasma, Low QC 3.00
[18] = methotrexate, 142 h Processed sample stability, High QC 750
[19] = methotrexate, 142 h Processed sample stability, Low QC 3.00
[20] = methotrexate, 6 days at 5 °C Re-injection integrity, High QC 750
[21] = methotrexate, 6 days at 5 °C Re-injection integrity, Low QC 3.00
[22] = methotrexate, 449 day at -20 °C in Plasma, High QC 750
[23] = methotrexate, 449 day at -20 °C in Plasma, Low QC 3.00
[24] = methotrexate, After 4 Freeze-Thaw Cycle in Plasma, High QC 750
[25] = methotrexate, After 4 Freeze-Thaw Cycle in Plasma, Low QC 3.00
[26] = male, human, plasma, oral, Treatment D: single-dose methotrexate 7.5 mg (day 1) + leucovorin 15 mg (day 2)
[27] = male, human, plasma, oral, Treatment F: BMS-986142 350 mg QD + single-dose methotrexate 7.5 mg (day 8) + leucovorin 15 mg (day 9)
[28] = methotrexate with BMS-986142 350 mg QD vs methotrexate alone
[29] = MTX 7.5 mg (Day 1) + leucovorin 15 mg (Day 2), n = 12

Stability, %Dev [1, 6]: -0.3% | Stability, Mean Conc. [1, 6]: 747 ng/mL | Stability, %Dev [1, 7]: 9.2% | Stability, Mean Conc. [1, 7]: 3.28 ng/mL | Stability, %Dev [1, 8]: -8.1% | Stability, Mean Conc. [1, 8]: 689 ng/mL | Stability, %Dev [1, 9]: -8.7% | Stability, Mean Conc. [1, 9]: 2.74 ng/mL | Stability, %Dev [1, 10]: 0.4% | Stability, Mean Conc. [1, 10]: 753 ng/mL | Stability, %Dev [1, 11]: 5.7% | Stability, Mean Conc. [1, 11]: 3.17 ng/mL | Stability, %Dev [1, 12]: -0.3% | Stability, Mean Conc. [1, 12]: 747 ng/mL | Stability, %Dev [1, 13]: -10.4% | Stability, Mean Conc. [1, 13]: 2.69 ng/mL | Stability, %Dev [1, 14]: 0.2% | Stability, Mean Conc. [1, 14]: 751 ng/mL | Stability, %Dev [1, 15]: 1.4% | Stability, Mean Conc. [1, 15]: 3.04 ng/mL
SMILES: CN(Cc1nc2c(N)nc(N)nc2[nH]c1=O)c1ccc(C(=O)N[C@@H](CCC(=O)O)C(=O)O)cc1 [7-hydroxymethotrexate]

SMILES: Cc1c(NC(=O)c2cc3c(s2)CCCC3)cccc1-c1cn(C)c(=O)c(Nc2ccc([C@@H]3C(=O)N(C)CCN3C)cc2)n1 [GDC-0834]
Efficacy in animal models of arthritis [2]: Dose-dependent efficacy

SMILES: C=CC(=O)N1CCC[C@@H](n2nc(-c3ccc(Oc4ccccc4)cc3)c3c(N)ncnc32)C1 [PCI-32765]
Efficacy in animal models of arthritis [2]: Dose-dependent efficacy

SMILES: CN1CCN(c2ccc(Nc3cc(-c4cccc(-n5ccc6cc(C7CC7)cc(F)c6c5=O)c4CO)cn(C)c3=O)nc2)CC1 [RN486]
Efficacy on joint and systemic inflammation [3]: efficacious in reducing joint and systemic inflammation

Stability, %Dev [1, 16]: 0.2% | Stability, Mean Conc. [1, 16]: 751 ng/mL | Stability, %Dev [1, 17]: -0.1% | Stability, Mean Conc. [1, 17]: 3.00 ng/mL | Stability, %Dev [1, 18]: -13.1% | Stability, Mean Conc. [1, 18]: 652 ng/mL | Stability, %Dev [1, 19]: -9.2% | Stability, Mean Conc. [1, 19]: 2.72 ng/mL | Stability, %Dev [1, 20]: -2.2% | Stability, Mean Conc. [1, 20]: 734 ng/mL | Stability, %Dev [1, 21]: 3.4% | Stability, Mean Conc. [1, 21]: 3.10 ng/mL | Stability, %Dev [1, 22]: 0.6% | Stability, Mean Conc. [1, 22]: 755 ng/mL | Stability, %Dev [1, 23]: -9.9% | Stability, Mean Conc. [1, 23]: 2.70 ng/mL | Stability, %Dev [1, 24]: -2.1% | Stability, Mean Conc. [1, 24]: 734 ng/mL | Stability, %Dev [1, 25]: 3.7% | Stability, Mean Conc. [1, 25]: 3.11 ng/mL | AUC(0-T), geometric mean (adjusted) ([4]; Treatment D: single-dose methotrexate 7.5 mg (day 1) + leucovorin 15 mg (day 2)): 613 ng·h/mL | AUC(0-inf) [4, 26]: 625 ng·h/mL | Cmax [4, 26]: 178 ng/mL | AUC(0-t) ([4]; male, human, plasma, oral, Treatment F: BMS-986142 350 mg QD + single-dose methotrexate 7.5 mg (day 8) + leucovorin 15 mg (day 9), read-out: AUC(0-T), geometric mean (adjusted)): 638 ng·h/mL | AUC(0-inf) [4, 27]: 654 ng·h/mL | Cmax [4, 27]: 186 ng/mL | AUC(0-T), adjusted geometric mean ratio F vs D [4, 28]: 1.041 | AUC(inf), adjusted geometric mean ratio F vs D [4, 28]: 1.045 | Cmax, adjusted geometric mean ratio F vs D [4, 28]: 1.046
SMILES: CN(Cc1cnc2nc(N)nc(N)c2n1)c1ccc(C(=O)N[C@@H](CCC(=O)O)C(=O)O)cc1 [methotrexate, reference compound]
AE SOC: Gastrointestinal Disorders [5, 29]: 0 n (%) | AE SOC: General disorders and administration site conditions [5, 29]: 1 (8.3) n (%) | AE SOC: Infections and infestations [5, 29]: 0 n (%) | AE SOC: Injury, poisoning and procedural complications [5, 29]: 0 n (%) | AE SOC: Nervous system disorders [5, 29]: 1 (8.3) n (%) | AE SOC: Psychiatric disorders [5, 29]: 0 n (%) | AE: Anxiety [5, 29]: 0 n (%) | AE: Arthropod Bite [5, 29]: 0 n (%) | AE: Asthenia [5, 29]: 1 (8.3) n (%) | AE: Dizziness [5, 29]: 1 (8.3) n (%) | AE: Fatigue [5, 29]: 0 n (%) | AE: Headache [5, 29]: 0 n (%) | AE: Nausea [5, 29]: 0 n (%) | AE: Sleep Disorder [5, 29]: 0 n (%) | AE: Tremor [5, 29]: 1 (8.3) n (%) | Total participants with an event [5, 29]: 1 (8.3) n (%) | Number of AEs reported ([5]; Study 2, single-dose MTX on day 1): Three
